# Experimental data reported in ChEMBL document CHEMBL4020753, “Inhibition of amyloid β aggregation and protective effect on SH-SY5Y cells by triterpenoid saponins from the cactus Polaskia chichipe” (Bioorg Med Chem, 2017).
# The source made the active and inactive calls. No cut-off for these calls is given here.
# Biological target: Amyloid-beta precursor protein (Homo sapiens) (UniProt P05067)
# Assay: Inhibition of amyloid beta (1 to 42) (unknown origin)-induced cytotoxicity in human SH-SY5Y cells assessed as cell viability at 6.25 uM after 24 hrs by WST8 assay (reference value: 63.1 +/- 5.6%)
# Assay type: cell-based
# Chain of Amyloid-beta precursor protein (Homo sapiens) (P05067 whole entry): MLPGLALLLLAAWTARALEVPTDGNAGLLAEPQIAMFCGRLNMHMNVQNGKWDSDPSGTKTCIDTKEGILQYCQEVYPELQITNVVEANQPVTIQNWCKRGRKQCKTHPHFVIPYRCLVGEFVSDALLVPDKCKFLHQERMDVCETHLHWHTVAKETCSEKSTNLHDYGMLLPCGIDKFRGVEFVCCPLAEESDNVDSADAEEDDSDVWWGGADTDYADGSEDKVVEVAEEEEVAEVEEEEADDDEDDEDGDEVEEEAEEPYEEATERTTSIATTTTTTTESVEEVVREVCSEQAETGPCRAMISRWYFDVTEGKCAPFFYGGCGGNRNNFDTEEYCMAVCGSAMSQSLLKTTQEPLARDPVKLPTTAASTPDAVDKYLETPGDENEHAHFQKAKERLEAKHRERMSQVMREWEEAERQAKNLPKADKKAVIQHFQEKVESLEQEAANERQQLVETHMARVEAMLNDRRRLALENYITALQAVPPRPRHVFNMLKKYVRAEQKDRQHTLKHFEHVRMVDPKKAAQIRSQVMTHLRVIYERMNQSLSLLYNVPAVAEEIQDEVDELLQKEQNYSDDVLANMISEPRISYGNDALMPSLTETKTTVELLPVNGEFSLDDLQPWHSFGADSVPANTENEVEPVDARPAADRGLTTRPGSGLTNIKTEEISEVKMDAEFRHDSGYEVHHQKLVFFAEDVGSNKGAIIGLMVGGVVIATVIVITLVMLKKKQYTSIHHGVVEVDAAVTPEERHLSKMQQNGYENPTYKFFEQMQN
row,SMILES,Activity [%]
1,O=C(OC[C@H]1O[C@@H](OC(=O)c2cc(O)c(O)c(OC(=O)c3cc(O)c(O)c(O)c3)c2)[C@H](OC(=O)c2cc(O)c(O)c(OC(=O)c3cc(O)c(O)c(O)c3)c2)[C@@H](OC(=O)c2cc(O)c(O)c(OC(=O)c3cc(O)c(O)c(O)c3)c2)[C@@H]1OC(=O)c1cc(O)c(O)c(OC(=O)c2cc(O)c(O)c(O)c2)c1)c1cc(O)c(O)c(OC(=O)c2cc(O)c(O)c(O)c2)c1,78.8

# Biological target: Amyloid-beta precursor protein (Homo sapiens) (UniProt P05067)
# Assay: Inhibition of amyloid beta (1 to 42) (unknown origin)-induced cytotoxicity in human SH-SY5Y cells assessed as increase in cell viability at 12.5 uM after 24 hrs by WST8 assay
# Assay type: cell-based
row,SMILES,inhibition
1,O=C(OC[C@H]1O[C@@H](OC(=O)c2cc(O)c(O)c(OC(=O)c3cc(O)c(O)c(O)c3)c2)[C@H](OC(=O)c2cc(O)c(O)c(OC(=O)c3cc(O)c(O)c(O)c3)c2)[C@@H](OC(=O)c2cc(O)c(O)c(OC(=O)c3cc(O)c(O)c(O)c3)c2)[C@@H]1OC(=O)c1cc(O)c(O)c(OC(=O)c2cc(O)c(O)c(O)c2)c1)c1cc(O)c(O)c(OC(=O)c2cc(O)c(O)c(O)c2)c1,inactive
2,CC1(C)CC[C@]2(C(=O)O)[C@@H](O)C[C@]3(C)C(=CC[C@@H]4[C@@]5(C)CC[C@H](O)C(C)(C)[C@@H]5CC[C@]43C)[C@@H]2C1,inactive
3,CC1(C)CC[C@]2(C(=O)O)CC[C@]3(C)C(=CC[C@@H]4[C@@]5(C)CC[C@H](O)C(C)(C)[C@@H]5CC[C@]43C)[C@@H]2C1,inactive
4,CC(=O)OC[C@]12[C@@H](OC(C)=O)CC(C)(C)C[C@H]1C1=CC[C@@H]3[C@@]4(C)CC[C@H](O)C(C)(C)[C@@H]4CC[C@@]3(C)[C@]1(C)C[C@@H]2OC(C)=O,inactive
5,CC1(C)C[C@H](O)[C@]2(CO)[C@@H](O)C[C@]3(C)C(=CC[C@@H]4[C@@]5(C)CC[C@H](O)C(C)(C)[C@@H]5CC[C@]43C)[C@@H]2C1,inactive

# Biological target: Amyloid-beta precursor protein (Homo sapiens) (UniProt P05067)
# Assay: Inhibition of amyloid beta (1 to 42) (unknown origin)-induced cytotoxicity in human SH-SY5Y cells assessed as increase in cell viability at 50 uM after 24 hrs by WST8 assay
# Assay type: cell-based
row,SMILES,protection from amyloid beta cytotoxicity (active/not active)
1,CC(=O)OC[C@]12[C@@H](OC(C)=O)CC(C)(C)C[C@H]1C1=CC[C@@H]3[C@@]4(C)CC[C@H](O[C@@H]5O[C@H](C(=O)O)[C@@H](O)[C@H](O)[C@H]5O[C@@H]5O[C@H](CO)[C@@H](O)[C@H](O)[C@H]5O[C@@H]5O[C@@H](C)[C@H](O)[C@@H](O)[C@H]5O)C(C)(C)[C@@H]4CC[C@@]3(C)[C@]1(C)C[C@@H]2OC(C)=O,inactive
2,C[C@@H]1O[C@@H](OC(=O)[C@]23CCC(C)(C)C[C@H]2C2=CC[C@@H]4[C@@]5(C)CC[C@H](O[C@@H]6O[C@H](C(=O)O)[C@@H](O)[C@H](O)[C@H]6O[C@@H]6O[C@H](CO)[C@@H](O)[C@H](O)[C@H]6O[C@@H]6OC[C@@H](O)[C@H](O)[C@H]6O)C(C)(C)[C@@H]5CC[C@@]4(C)[C@]2(C)C[C@@H]3O)[C@H](O)[C@H](O)[C@H]1O,Active
3,CC1(C)CC[C@]2(C(=O)O[C@@H]3O[C@H](CO)[C@@H](O)[C@H](O)[C@H]3O)CC[C@]3(C)C(=CC[C@@H]4[C@@]5(C)CC[C@H](O[C@@H]6O[C@H](C(=O)O)[C@@H](O)[C@H](O)[C@H]6O[C@@H]6O[C@H](CO)[C@@H](O)[C@H](O)[C@H]6O[C@@H]6OC[C@@H](O)[C@H](O)[C@H]6O)C(C)(C)[C@@H]5CC[C@]43C)[C@@H]2C1,Active
4,C[C@@H]1O[C@@H](OC(=O)[C@]23CCC(C)(C)C[C@H]2C2=CC[C@@H]4[C@@]5(C)CC[C@H](O[C@@H]6O[C@H](C(=O)O)[C@@H](O)[C@H](O[C@@H]7O[C@@H](C)[C@H](O)[C@@H](O)[C@H]7O)[C@H]6O[C@@H]6O[C@H](CO)[C@@H](O)[C@H](O)[C@H]6O)C(C)(C)[C@@H]5CC[C@@]4(C)[C@]2(C)C[C@@H]3O)[C@H](O)[C@H](O)[C@H]1O,Active
5,C[C@@H]1O[C@@H](O[C@H]2[C@H](O)[C@@H](C(=O)O)O[C@@H](O[C@H]3CC[C@]4(C)[C@H]5CC=C6[C@@H]7CC(C)(C)CC[C@]7(C(=O)O[C@@H]7O[C@H](CO)[C@@H](O)[C@H](O)[C@H]7O)CC[C@@]6(C)[C@]5(C)CC[C@H]4C3(C)C)[C@@H]2O[C@@H]2O[C@H](CO)[C@@H](O)[C@H](O)[C@H]2O)[C@H](O)[C@H](O)[C@H]1O,Active

# Biological target: Amyloid-beta precursor protein (Homo sapiens) (UniProt P05067)
# Assay: Inhibition of amyloid beta (1 to 42) (unknown origin)-induced cytotoxicity in human SH-SY5Y cells assessed as cell viability at 50 uM after 24 hrs by WST8 assay (reference value: 63.1 +/- 5.6%)
# Assay type: cell-based
row,SMILES,Activity [%]
1,COC(=O)[C@H]1O[C@@H](O[C@H]2CC[C@]3(C)[C@H]4CC=C5[C@@H]6CC(C)(C)C[C@H](OC(C)=O)[C@]6(COC(C)=O)[C@@H](OC(C)=O)C[C@@]5(C)[C@]4(C)CC[C@H]3C2(C)C)[C@H](O[C@@H]2O[C@H](CO)[C@@H](O)[C@H](O)[C@H]2O[C@@H]2OC[C@@H](O)[C@H](O)[C@H]2O)[C@@H](O)[C@@H]1O,84.3
2,COC(=O)[C@H]1O[C@@H](O[C@H]2CC[C@]3(C)[C@H]4CC=C5[C@@H]6CC(C)(C)C[C@H](OC(C)=O)[C@]6(COC(C)=O)[C@@H](OC(C)=O)C[C@@]5(C)[C@]4(C)CC[C@H]3C2(C)C)[C@H](O[C@@H]2O[C@H](CO)[C@@H](O)[C@H](O)[C@H]2O)[C@@H](O[C@@H]2O[C@@H](C)[C@H](O)[C@@H](O)[C@H]2O)[C@@H]1O,79.2
3,CC(=O)OC[C@]12[C@@H](OC(C)=O)CC(C)(C)C[C@H]1C1=CC[C@@H]3[C@@]4(C)CC[C@H](O[C@@H]5O[C@H](C(=O)O)[C@@H](O)[C@H](O[C@@H]6O[C@@H](C)[C@H](O)[C@@H](O)[C@H]6O)[C@H]5O[C@@H]5O[C@H](CO)[C@@H](O)[C@H](O)[C@H]5O)C(C)(C)[C@@H]4CC[C@@]3(C)[C@]1(C)C[C@@H]2OC(C)=O,87.4
4,CC(=O)OC[C@]12[C@@H](OC(C)=O)CC(C)(C)C[C@H]1C1=CC[C@@H]3[C@@]4(C)CC[C@H](O[C@@H]5O[C@H](C(=O)O)[C@@H](O)[C@H](O)[C@H]5O[C@@H]5O[C@H](CO)[C@@H](O)[C@H](O)[C@H]5O[C@@H]5OC[C@@H](O)[C@H](O)[C@H]5O)C(C)(C)[C@@H]4CC[C@@]3(C)[C@]1(C)C[C@@H]2OC(C)=O,83.7
